Measured values taken from patent US20240082260A1, “INHIBITOR OF PROTEIN KINASE D FOR USE IN PREVENTION OR TREATMENT OF HYPERLIPIDEMIA” (priority 2021, published 2024).

Experiments:
[1] = system: Caco2 cells; assay: Lipid transport (14C-fatty acid release) through Caco2 monolayer in transwell system; type: cell-based, human; conditions: 24 h
Procedure: Lipid transport studies were assessed in Caco2 cells seeded in trans-wells. 1.5×10^5 cells were seeded into a 12-well cell culture insert of 1 μm pore size Trans-well and maintained in for 14 consecutive days with media change every two days. For the lipids uptake and release, the apical side of the membrane was loaded with radioactive ^14C-palmitic acid (0.2 μCi), oleic acid (1 mM), and taurocholic acid (2 mM) in DMEM high glucose 10% FBS. The basal medium contained DMEM high glucose 0.1% FBS. After 24 hours of incubation, cell lysates and the apical and basolateral medium was collected and the ^14C-palmitic acid was measured in a scintillation counter for aliquots of apical and basal medium and for cell lysate. The same protocol was used in Caco2 cells that were treated with CRT0066101 (3 and 5 μM) for 24 h (added together with the mentioned radioactive fatty acid cocktail).
In order to test the potential of PKD inhibitors to restrict lipid transport via epithelial monolayer, we employed Caco2 cells seeded into the Transwells system. Briefly, we plated 1.5×10^5 cells seeded into a 12-well cell culture inserts of 1-μm pore size Transwell and maintained in for 14 consecutive days with media change every 2 days. For the lipid uptake and release, the apical side of the membrane was loaded with radioactive 14C-palmitic acid (0.2 μCi), oleic acid (1 mM), and taurocholic acid (2 mM) in DMEM high glucose 10% FBS. The basal medium contained DMEM high glucose 0.1% FBS. After 24 h of incubation, cell lysates and the apical and basolateral medium were collected and the 14C-palmitic acid was measured in a scintillation counter for aliquots of apical and basal medium and for cell lysate. To assess the efficiency of different PKD inhibitors, Caco2 cells were treated with either CRT0066101 (5 μM), CID2011756 (20 μM), CID755673 (20 μM), 1-NM-PP1 (20 μM), or control solvent solution (DMSO) for 24 h (added together with the mentioned radioactive FA cocktail).

[2] = system: male C57BL/6 mice on HFD; assay: Oral PKD inhibitor in HFD-fed C57BL/6 mice (diet-induced obesity and diabetes); type: in vivo, mouse
Procedure: Mice body weight development was closely monitored and reported here on a weekly basis when mice were on a specified diet. All experiments were performed in male mice.
(§1) PKD inhibitor CRT0066101 was dissolved in water (10 mg/kg) and administered orally to the mice by daily gavage, while the control mice were gavaged with water. Mice were maintained on the specified diets and had ab libitum access to food and water. C57BL/6 mice were administered CRT inhibitor treatment at 4-weeks of age, while for the rescue experiment, inhibitor was given under the same circumstances but treatment started only after 7 weeks of HFD feeding. Intestinal barrier permeability was further assessed 1 hour after oral gavage of FITC-Dextran 4.
Energy expenditure, food intake, and activity measurements were obtained in a PhenoMaster (TSE Systems) as previously described (El-Merahbi, Viera et al., 2020, Trujillo Viera, El-Merahbi et al., 2016). Briefly, mice were kept in separate metabolic cages with unlimited access to water and to the specified diet. After 48 hours of acclimation, data was collected every 10 min including photobeam breaks, oxygen consumption, carbon dioxide dissipation, and food and water consumption. Results in bars represent the average of each night/day cycle.
A glucose tolerance test (GTT) was performed after overnight fasting. Mice blood glucose was assessed before and 15, 30, 60, 90, and 120 minutes after intraperitoneal injection of glucose (2 g/kg). For the Insulin tolerance test (ITT), the same measurements were performed after 4 hours of fasting and intraperitoneal injection of 0.5 U/kg of recombinant insulin. For glucose measurements, one blood drop was drawn from the tail tip into a test strip and measured with a glucometer (Accu-Chek® Roche).
Lipids tolerance test was performed as described previously (Wang, Rong et al., 2016b). Briefly, overnight fasted mice were gavaged with olive oil (10 μL/g body weight). Blood was collected at indicated times for measurement of serum triglycerides content. For lipids absorption under tyloxapol treatment, 250 μg/g of body weight were i.p. injected to mice 30 minutes before the gavage of olive oil 5 μL/g body weight.
Liver triglycerides were measured by homogenization of 50 mg of liver in 500 uL of lysis buffer and lipids extraction in methanol:chloroform, phase extraction and evaporation. The lipids were redissolved in DMSO and triglycerides quantified with the mentioned kit and according to the manufacturers' instructions.
The bedding of single-caged mice was collected and the ingested food ingestion from the individual mice was assessed. All the stools were manually collected. After overnight dissecation at 60° C., the samples were weighted and frozen for further analysis. The amount of feces produced per mouse was compared to the amount of food consumed and the weight gain. About 3 g of dried feces material were homogenized and 1 g was pressed into a tablet and accurately weighted. Calorie content from feces and diet was measured in duplicates in a 6400 Automatic Isoperibol calorimeter (Parr Instrument Company). To analyze energy excreted, the amount of energy in feces was compared to the amount of energy ingested (the product between grams of food and caloric content of the food). Lipids extraction from feces was performed as previously described (Kraus, Yang et al., 2015).
(§2) Proteins from tissues and cell culture were extracted with RIPA buffer supplemented with phosphatase and protease inhibitor (PPI, Thermo Fisher Scientific). Protein concentration was measured by Pierce™ BCA Protein Assay Kit (Thermo Fisher Scientific) following the manufacturer's protocol. Reduced protein extracts were separated on 10% SDS-PAGE gels by electrophoresis and transferred to PVDF membranes under wet transfer. Membranes were blocked in 5% (w/v) milk in TBS-T before overnight probing with indicated primary antibodies at 4° C., followed by TBS-T washes and incubation with corresponding secondary antibody.

[3] = system: PKD 1/2; conditions: oral, dose 8 times higher than used here, cited from earlier work
[4] = system: phosphorylated PKD2; conditions: oral 10 mg/kg once a day, HFD
Procedure: as §1, §2

CC[C@@H](N)CNc1ccnc(-c2cc(-c3cnn(C)c3)ccc2O)n1 [CRT0066101]
lipid transport through the Caco2 monolayer ([1]; 5 μM, vs DMSO, FIG. 8): significant reduction in lipid transport | TG secretion (basolateral release of 14C-labeled fatty acids) ([1]; Caco2 transwell, 3 and 5 μM, FIG. 6A): reduces TG secretion in a dose dependent manner | accumulation of TG in the liver ([2]; oral 10 mg/kg daily, HFD): did not affect | brown adipose tissue morphology ([2]; oral 10 mg/kg daily, HFD): promoted healthier, multilocular brown adipose tissue | energy expenditure ([2]; oral 10 mg/kg daily, HFD): did not affect | food consumption ([2]; oral 10 mg/kg daily, HFD): did not affect | markers of liver function ([2]; oral 10 mg/kg daily, HFD): did not affect | mobility ([2]; oral 10 mg/kg daily, HFD): did not affect | body weight gain ([2]; oral 10 mg/kg daily, HFD, 13 weeks, vs water, FIG. 6G): significantly lower body weight gain | levels of APOA4 in the intestine (jejunum, western blot) ([2]; oral 10 mg/kg daily, HFD, 13 weeks, FIG. 6F): increased levels of APOA4 | fecal energy excretion ([2]; oral 10 mg/kg daily, HFD, FIG. 6D): greater fecal energy excretion | intestinal TG absorption (lipids tolerance test after olive oil gavage) ([2]; oral 10 mg/kg daily, after 9 weeks HFD, FIG. 6E): decreased intestinal TG absorption | glucose tolerance (GTT) ([2]; oral 10 mg/kg daily, after 10 weeks of treatment and HFD, FIG. 6H): improved | insulin tolerance (ITT) ([2]; oral 10 mg/kg daily, after 11 weeks of treatment and HFD, FIG. 6I): improved | obesity induced by a high-fat diet (summary statement) ([2]; oral administration, mice, also said to prevent hyperlipidemia and diabetes and improve microflora): significantly reduces obesity induced by a high-fat diet | reduction in PKD 1/2 activation ([3]; pancreatic tumors): 50% | time of highest concentrations in pancreatic tumors [3]: 2 h | PKD activity in liver or adipose tissue [4]: no similar decrease was observed | intestinal PKD activity (phosphorylated PKD2 in jejunum) ([4]; 13 weeks, FIG. 6C): attenuated
